Source: ChEMBL document CHEMBL1201862, “PubChem BioAssay data set” (2004)
Calls of active or inactive are those of the source.

Experiments:
[1] = A2780 ovarian cancer cell cytotoxicity, dose response, cytotoxicity control, plate reader, dry powder samples (AID 743046); type: functional, cell-based
[2] = NIH:OVCAR-3 ovarian cancer cell cytotoxicity, dose response, PAX8 inhibitor project, plate reader, dry powder samples (AID 743044); type: functional, cell-based
Paired box protein Pax-8 = Paired box protein Pax-8 (Homo sapiens, UniProt Q06710); assay: inhibitors of PAX8-driven TPO luciferase reporter, dose response, RMG-I cells, cherry-pick (AID 687027); type: functional, cell-based;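 further: luciferase reporter driven by Pax8 target thyroperoxidase promoter measured by SteadyGlo luminescence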
Sequence of Paired box protein Pax-8 (Q06710 whole entry): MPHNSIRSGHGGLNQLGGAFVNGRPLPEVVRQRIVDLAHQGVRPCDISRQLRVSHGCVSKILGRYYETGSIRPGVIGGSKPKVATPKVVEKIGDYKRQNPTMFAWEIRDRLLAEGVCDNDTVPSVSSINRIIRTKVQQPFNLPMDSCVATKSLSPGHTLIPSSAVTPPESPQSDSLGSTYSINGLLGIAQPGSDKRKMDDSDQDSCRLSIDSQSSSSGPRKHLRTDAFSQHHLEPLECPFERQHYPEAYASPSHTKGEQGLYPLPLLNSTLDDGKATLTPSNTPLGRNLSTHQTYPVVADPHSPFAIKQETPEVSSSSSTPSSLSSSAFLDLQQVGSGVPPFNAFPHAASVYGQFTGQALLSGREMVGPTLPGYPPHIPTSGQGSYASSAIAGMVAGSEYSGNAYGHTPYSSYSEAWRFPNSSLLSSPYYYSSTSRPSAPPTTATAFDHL

[3] = cytotoxicity in OVCAR8 ovarian cancer cells, dose response, PAX8 project, cell-based, plate reader, dry powder samples (AID 743197); type: functional; conditions: OVCAR-8
[4] = IGROV1 ovarian cancer cell cytotoxicity, dose response, PAX8 inhibitor project, plate reader, dry powder samples (AID 743043); type: functional, cell-based; conditions: IGROV-1
[5] = non-specific cell cytotoxicity, dose response, cytotoxicity control for PAX8 inhibitor project, plate reader, dry powder samples (AID 743021); type: functional, cell-based
[6] = IOSE-T80 ovarian epithelial cell cytotoxicity, dose response, cytotoxicity control for PAX8 inhibitor project, plate reader, dry powder samples (AID 743045); type: functional, cell-based
[7] = target: Voltage-gated inwardly rectifying potassium channel KCNH2 (Homo sapiens, UniProt Q12809); assay: hERG protection from proarrhythmic block, potency, dose response, cell-based, thallium flux (AID 2121); type: ADME
Sequence of Voltage-gated inwardly rectifying potassium channel KCNH2 (Q12809 whole entry): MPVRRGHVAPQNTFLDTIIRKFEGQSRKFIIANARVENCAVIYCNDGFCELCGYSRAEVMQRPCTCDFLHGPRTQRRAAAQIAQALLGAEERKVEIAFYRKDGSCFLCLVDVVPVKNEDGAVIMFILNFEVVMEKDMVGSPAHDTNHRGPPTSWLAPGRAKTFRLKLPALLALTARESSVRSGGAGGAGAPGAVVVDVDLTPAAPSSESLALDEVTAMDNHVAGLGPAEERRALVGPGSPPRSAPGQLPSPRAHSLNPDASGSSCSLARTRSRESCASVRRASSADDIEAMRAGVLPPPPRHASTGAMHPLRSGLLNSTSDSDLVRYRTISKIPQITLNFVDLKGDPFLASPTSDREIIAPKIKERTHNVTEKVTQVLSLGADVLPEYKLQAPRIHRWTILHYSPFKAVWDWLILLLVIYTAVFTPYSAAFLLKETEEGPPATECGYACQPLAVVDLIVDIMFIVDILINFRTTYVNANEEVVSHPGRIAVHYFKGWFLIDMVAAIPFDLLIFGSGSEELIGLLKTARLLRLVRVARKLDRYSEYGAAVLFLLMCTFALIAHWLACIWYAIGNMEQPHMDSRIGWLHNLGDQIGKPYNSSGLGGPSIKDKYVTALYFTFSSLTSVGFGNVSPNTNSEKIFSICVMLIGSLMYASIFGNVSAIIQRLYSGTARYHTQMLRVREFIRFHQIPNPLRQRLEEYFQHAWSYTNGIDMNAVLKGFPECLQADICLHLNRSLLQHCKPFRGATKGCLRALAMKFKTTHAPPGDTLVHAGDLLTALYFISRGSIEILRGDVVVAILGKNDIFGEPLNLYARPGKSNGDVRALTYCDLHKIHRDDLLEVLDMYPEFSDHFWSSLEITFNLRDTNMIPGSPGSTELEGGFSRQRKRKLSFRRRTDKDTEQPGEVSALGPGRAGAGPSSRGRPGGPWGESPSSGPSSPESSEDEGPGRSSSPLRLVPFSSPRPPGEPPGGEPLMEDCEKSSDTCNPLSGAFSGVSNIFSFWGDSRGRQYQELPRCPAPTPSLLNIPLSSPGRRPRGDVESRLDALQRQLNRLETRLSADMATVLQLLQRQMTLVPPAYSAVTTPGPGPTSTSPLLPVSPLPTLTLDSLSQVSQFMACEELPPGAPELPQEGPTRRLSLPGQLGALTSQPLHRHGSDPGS

[8] = C. albicans growth with fluconazole, confirmation, fluorescence, retest (AID 2467); type: functional, cell-based
[9] = NIH-3T3 fibroblast cytotoxicity, dose response, cytotoxicity control, cell-based, fluorescence, Alamar Blue, secondary assay (AID 2327); type: functional;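 further: NIH-3T3 mouse fibroblasts cultured with fluconazole at 8 µg/mL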
Cytochrome P450 2C9 = Cytochrome P450 2C9 (Homo sapiens, UniProt P11712)
Sequence of Cytochrome P450 2C9 (P11712 whole entry): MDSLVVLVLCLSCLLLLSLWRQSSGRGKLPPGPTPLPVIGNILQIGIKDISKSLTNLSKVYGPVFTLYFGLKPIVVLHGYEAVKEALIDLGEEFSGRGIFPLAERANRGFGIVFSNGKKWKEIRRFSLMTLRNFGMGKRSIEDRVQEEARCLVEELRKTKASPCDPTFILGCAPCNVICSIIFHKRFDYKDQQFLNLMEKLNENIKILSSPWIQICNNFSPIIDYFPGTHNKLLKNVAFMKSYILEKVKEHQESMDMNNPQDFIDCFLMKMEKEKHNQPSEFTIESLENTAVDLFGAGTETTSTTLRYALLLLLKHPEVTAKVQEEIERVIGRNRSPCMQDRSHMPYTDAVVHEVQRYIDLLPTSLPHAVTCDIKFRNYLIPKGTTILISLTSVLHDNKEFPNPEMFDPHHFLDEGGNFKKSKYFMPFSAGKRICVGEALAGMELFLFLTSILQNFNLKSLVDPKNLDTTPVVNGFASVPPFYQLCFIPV

[10] = inhibitors of PGC1a acetylation in cells, dose response, cell-based, cherry-picked samples (AID 720514); type: functional;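 further: potency may reflect raised or lowered acetylation signal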
Cytochrome P450 3A4 = Cytochrome P450 3A4 (Homo sapiens, UniProt P08684);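 further: CYP3A4 tested as one member of a cytochrome P450 panel screen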
Sequence of Cytochrome P450 3A4 (P08684 whole entry): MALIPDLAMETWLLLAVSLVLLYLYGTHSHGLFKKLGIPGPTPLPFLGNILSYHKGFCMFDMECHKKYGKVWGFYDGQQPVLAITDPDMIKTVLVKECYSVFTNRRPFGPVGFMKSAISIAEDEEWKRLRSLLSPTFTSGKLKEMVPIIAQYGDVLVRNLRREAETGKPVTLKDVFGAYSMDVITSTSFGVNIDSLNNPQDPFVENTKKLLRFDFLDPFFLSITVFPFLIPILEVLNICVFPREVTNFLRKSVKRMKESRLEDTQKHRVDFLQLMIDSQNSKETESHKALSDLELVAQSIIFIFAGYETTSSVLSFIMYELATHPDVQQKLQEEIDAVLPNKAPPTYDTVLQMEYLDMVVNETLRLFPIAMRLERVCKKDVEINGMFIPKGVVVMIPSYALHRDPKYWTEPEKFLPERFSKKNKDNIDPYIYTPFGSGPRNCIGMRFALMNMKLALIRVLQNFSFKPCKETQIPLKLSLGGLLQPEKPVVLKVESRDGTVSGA

[11] = cytotoxicity in KRAS-transformed pancreatic duct cells, primary screen, cell-based, fluorescence, HTS (AID 431); type: functional; conditions: Homo sapiens;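 further: cell line used: HPDE-C7K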
[12] = cytotoxicity in HPDE-C7 cells, cell-based, fluorescence, HTS (AID 430); type: functional; conditions: Homo sapiens
[13] = Luminescence Cell-Based Dose Confirmation HTS to Identify Inhibitors of Platelet Dense Granule Release. [Related pubchem assays: 1663 (Primary HTS), 1678 (Summary of Project)]; type: functional
[14] = target: COUP transcription factor 2 (Homo sapiens, UniProt P24468); assay: Luminescence-based cell-based high throughput dose response assay to identify inhibitors of COUP-TFII (NR2F2).; type: functional;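 further: HEK293 cells transiently cotransfected with COUP-TFII expression vector and reporter; luciferase reporter luminescence driven by COUP-TFII from the pX2-168 reporter plasmid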
Sequence of COUP transcription factor 2 (P24468 whole entry): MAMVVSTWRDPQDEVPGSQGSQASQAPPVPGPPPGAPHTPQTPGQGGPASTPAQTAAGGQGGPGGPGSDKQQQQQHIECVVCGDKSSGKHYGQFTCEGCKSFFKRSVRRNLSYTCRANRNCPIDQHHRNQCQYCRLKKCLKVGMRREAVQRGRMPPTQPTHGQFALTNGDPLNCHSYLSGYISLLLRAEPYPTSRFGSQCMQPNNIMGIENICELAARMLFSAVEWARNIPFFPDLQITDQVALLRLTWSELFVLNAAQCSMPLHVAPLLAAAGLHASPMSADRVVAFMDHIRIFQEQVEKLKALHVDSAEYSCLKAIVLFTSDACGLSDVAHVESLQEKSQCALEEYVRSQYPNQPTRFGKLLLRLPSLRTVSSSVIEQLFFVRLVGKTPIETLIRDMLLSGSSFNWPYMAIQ

[15] = target: Luciferin 4-monooxygenase (Photinus pyralis, UniProt P08659); assay: firefly luciferase enzyme inhibitors, dose response, biochemical, luminescence (AID 1891)
Sequence of Luciferin 4-monooxygenase (P08659 whole entry): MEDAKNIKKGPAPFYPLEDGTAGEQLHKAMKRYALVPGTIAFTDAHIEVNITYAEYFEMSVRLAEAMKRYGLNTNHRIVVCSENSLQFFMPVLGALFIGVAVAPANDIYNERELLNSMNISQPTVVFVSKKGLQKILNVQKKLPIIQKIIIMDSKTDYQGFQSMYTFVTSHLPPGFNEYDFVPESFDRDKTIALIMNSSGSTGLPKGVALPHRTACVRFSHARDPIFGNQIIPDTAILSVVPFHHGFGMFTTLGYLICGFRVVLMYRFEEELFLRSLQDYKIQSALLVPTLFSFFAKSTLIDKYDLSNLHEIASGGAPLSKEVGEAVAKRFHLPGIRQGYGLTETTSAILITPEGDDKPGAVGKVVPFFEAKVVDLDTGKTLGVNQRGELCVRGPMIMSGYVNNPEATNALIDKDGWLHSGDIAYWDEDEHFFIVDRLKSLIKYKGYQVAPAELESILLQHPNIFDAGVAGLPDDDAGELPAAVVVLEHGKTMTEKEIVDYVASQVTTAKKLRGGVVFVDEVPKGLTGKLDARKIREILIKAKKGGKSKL

[16] = Luminescence-based counterscreen assay for KLF5 inhibitors: dose response cell-based high throughput screening assay to identify cytotoxic compounds using the IEC-6 intestinal epithelial cell line. [Related pubchem assays: 1700 (Primary screen.), 1834 (Confirmation screen.), 1858 (Summary AID.), 1905 (Counterscreen.)]; type: functional
Beta-galactosidase = Beta-galactosidase (Escherichia coli, UniProt Q8VNN2); assay: beta-galactosidase enzyme inhibitors and activators, dose response, artefact control for CCR6 antagonist project, biochemical, E. coli enzyme, set 3 (AID 504712); type: functional
[17] = human group III sPLA2 inhibitors, dose response, biochemical, QFRET, IC50 (AID 743457);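 further: green fluorescence rise as the enzyme cleaves BODIPY PC-A2 in liposomes; potency for inhibition of the enzyme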
INS1 = assay: beta cell apoptosis inhibitors, cytokine rescue, dose response, luminescence, retest (AID 449756); type: functional, cell-based; conditions: Rattus norvegicus, INS1;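 further: cell death triggered by IL-1 beta plus TNF-alpha plus IFN-gamma mixture; protective hits raise ATP signal compared with cytokine alone wells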
HEK293 [18] = assay: cells; type: functional, cell-based; conditions: Homo sapiens
[19] = target: Nucleotide-binding oligomerization domain-containing protein 2 (Homo sapiens, UniProt Q9HC29); assay: NOD2 signaling inhibitors, cell-based, luminescence, uHTS, HEK293 (AID 1566); type: functional
Sequence of Nucleotide-binding oligomerization domain-containing protein 2 (Q9HC29 whole entry, the tested form may be a part): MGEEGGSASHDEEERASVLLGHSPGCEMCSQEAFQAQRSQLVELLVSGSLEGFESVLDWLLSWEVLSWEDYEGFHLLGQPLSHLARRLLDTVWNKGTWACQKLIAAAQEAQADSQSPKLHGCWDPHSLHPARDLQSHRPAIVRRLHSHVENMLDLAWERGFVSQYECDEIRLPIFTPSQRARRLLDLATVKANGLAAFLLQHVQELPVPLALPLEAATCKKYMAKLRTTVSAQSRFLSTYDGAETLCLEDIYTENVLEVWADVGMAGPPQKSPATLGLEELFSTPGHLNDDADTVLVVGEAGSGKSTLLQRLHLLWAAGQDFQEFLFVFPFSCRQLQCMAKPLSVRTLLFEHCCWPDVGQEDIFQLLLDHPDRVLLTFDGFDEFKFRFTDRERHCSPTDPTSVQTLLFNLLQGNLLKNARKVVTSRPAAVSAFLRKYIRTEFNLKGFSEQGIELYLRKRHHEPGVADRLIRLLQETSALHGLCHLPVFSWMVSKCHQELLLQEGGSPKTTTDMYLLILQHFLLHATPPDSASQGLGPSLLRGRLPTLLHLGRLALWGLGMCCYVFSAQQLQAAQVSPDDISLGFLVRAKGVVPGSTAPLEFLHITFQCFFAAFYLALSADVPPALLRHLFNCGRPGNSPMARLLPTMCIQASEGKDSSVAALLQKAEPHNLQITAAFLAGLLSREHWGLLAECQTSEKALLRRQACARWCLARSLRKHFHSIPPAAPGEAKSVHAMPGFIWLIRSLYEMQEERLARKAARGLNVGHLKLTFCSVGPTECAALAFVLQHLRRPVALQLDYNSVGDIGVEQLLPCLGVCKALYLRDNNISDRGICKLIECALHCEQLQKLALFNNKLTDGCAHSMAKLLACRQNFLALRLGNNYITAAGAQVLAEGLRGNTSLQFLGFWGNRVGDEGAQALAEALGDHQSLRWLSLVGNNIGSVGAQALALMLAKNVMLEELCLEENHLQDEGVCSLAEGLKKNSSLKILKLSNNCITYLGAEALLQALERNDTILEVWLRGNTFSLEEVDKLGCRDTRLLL

[20] = Shn3 3'UTR reporter inhibitors, dose response, cell-based, Clone20 osteoblasts, firefly luciferase, cherry-picked (AID 624132); type: functional;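 further: firefly luciferase luminescence from reporter carrying the Shn3 3'UTR in osteoblasts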
[21] = reduction of Shn3 3'UTR firefly luciferase signal, dose response, Schnurri-3 inhibitor project, cell-based, Clone20 osteoblasts, cherry-pick, set 2 (AID 720490); type: functional;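 further: actives lower the luminescence signal as inhibitors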
[22] = HepG2 cell cytotoxicity, dose response, cytotoxicity control for Shn3 inhibitor project, CellTiter-Glo, cherry-picked (AID 624134); type: functional, cell-based
HEK293 [23] = assay: cells; type: functional, cell-based; conditions: Homo sapiens; remark: listed apart in the source
HEK293 [24] = assay: NOD2 signaling inhibitors in MDP-stimulated cells, cell-based, uHTS, luminescence (AID 2001); type: functional; conditions: Homo sapiens
HEK293 [25] = assay: NOD1 signaling inhibitors, primary screen, cell-based, luminescence, uHTS (AID 1578); type: functional; conditions: Homo sapiens
HEK293 [26] = assay: cells; type: functional, cell-based; conditions: Homo sapiens; remark: listed apart in the source

C[C@H](CO)N1C[C@H](C)[C@@H](CN(C)C(=O)Nc2ccc3c(c2)OCO3)Oc2cc(C#Cc3ccncc3)ccc2S1(=O)=O
AC50 [1]: 10.9 µM (active)
AC50 [2]: 5.21 µM (active)
AC50 (Paired box protein Pax-8): 3.02 µM (active)
AC50 [3]: 8.81 µM (active)
AC50 [4]: 13.7 µM (active)
AC50 [5]: 47.5 µM (active)
AC50 [6]: 5.8 µM (active)

CCOc1ccc2nc(N3C(=O)/C(=C/c4ccccc4)NC3=S)sc2c1
EC50 [7]: 440 nM (active)
EC50 [8]: 3.03 µM (active)
EC50 [9]: > 150 µM (inconclusive)

CCc1ccc(C(=O)CN(C#N)c2nc(C)cc(C)n2)cc1
AC50 (Cytochrome P450 2C9): inconclusive
AC50 [10]: 19.3 µM (active)
AC50 (Cytochrome P450 3A4): 25.1 µM (inconclusive)

Cc1cc(C)nc(NCC(O)CNc2ccccc2Cl)n1 (stereo not drawn)
EC50 [11]: > 20 µM (not active)
EC50 [12]: > 20 µM (not active)

CCCc1ccc(C(=O)O/N=C(\N)c2ccccn2)cc1
EC50 [13]: 1.2 µM (active)
AC50 (Paired box protein Pax-8): 5.93 µM (active)
IC50 [14]: 22.1 µM (inactive)
EC50 [15]: 407 nM (active)
IC50 [16]: 27.8 µM (not active)

O=C(NC(=S)Nc1ccccc1N1CCCC1)c1ccc([N+](=O)[O-])cc1
EC50 [7]: 3240 nM (active)
IC50 (Beta-galactosidase): > 66.6 µM (inactive)
IC50 [17]: 44.6 µM (inactive)

COc1ccc(CC(=O)Nc2ccncc2Cl)cc1
AC50 (INS1): 5.67 µM (active)
IC50 (HEK293 [18]): > 20 µM (inactive)
EC50 [19]: 14.9 µM (active)
AC50 [20]: 2.12 µM (active)
AC50 [21]: 2.13 µM (active)
AC50 [22]: 57.3 µM (active)
IC50 (HEK293 [23]): 14 µM (active)
IC50 (HEK293 [24]): 17.8 µM (inactive)
EC50 (HEK293 [25]): 4.73 µM (active)
IC50 (HEK293 [26]): > 20 µM (inactive)
